Experimental data as given in patent publication US20190365776A1, “THERAPEUTIC AGENT FOR OCULAR FUNDUS DISEASE” (KYUSHU UNIVERSITY, NATIONAL UNIVERSITY CORPORATION, priority 2013, published 2019).

Legend:
[1] = tested on: model mice with hyperoxia-induced retinopathy; conditions: intravitreally administered; Non-Patent Document 6; cited from earlier work
[2] = tested on: VEGF-induced neovascularization; conditions: Non-Patent Documents 2 and 3; cited from earlier work
diabetic model rats = conditions: intravitreally administered; Non-Patent Documents 4 and 5; cited from earlier work
[3] = tested on: mice OIR (Oxygen-Induced Retinopathy) model; experiment: Mice OIR (oxygen-induced retinopathy) model, flat-mounted retina; assay type: in vivo, C57BL/6JJcl mice; conditions: 0.4% solution, ocular instillation 20 μL three times a day, day 12 to day 17 after birth, flat mount
Experimental: The effectiveness of (S)-(−)-1-(4-fluoro-5-isoquinolinesulfonyl)-2-methyl-1,4-homopiperazine (compound 1) in a mice OIR model commonly used as a model of ischemic retinopathy such as diabetic retinopathy was examined in the following manner. Compound 1 solutions: 0.4% solution, 0.8% solution (instillation volume: 20 μL) Fasudil solution: 0.4% solution (instillation volume: 20 μL) Test animals: C57BL/6JJcl mice (sex: male, 8 to 14 mice per group) C57BL/6JJcl mice born on the same day were reared in a 75%-oxygen environment from day 7 after birth, and were then transferred to a normal indoor environment on day 12 after birth to start administration by ocular instillation. Test groups were a saline instillation group (control), a 0.4% compound 1 solution instillation group, a 0.8% compound 1 solution instillation group, and a 0.4% fasudil solution instillation group, and saline, the compound 1 solution, or the fasudil solution was administered by ocular instillation three times a day. On day 17 after birth, ischemic retinal areas (non-perfused areas) and neovascular areas were quantified for evaluation by flat-mounting or fluorescein fundus angiography. More specifically, 1 g/kg of pentobarbital (Nembutal) was administered intraperitoneally for euthanasia under deep anesthesia, and then both eyeballs were excised and fixed with 4% paraformaldehyde (PFA) at 37° C. for 1 hour, and the corneal limbus was circumferentially incised to remove the cornea and iris from the eyeball. Then, after fixation with 4% PFA at 37° C. for 1 hour, the lens, sclera, and choroid were removed, and the eye cup including the retina was isolated. Further, the retina was fixed with 4% PFA at 37° C. for 3 hours, washed with PBS three times (15 min per wash, 37° C.), dehydrated (methanol 50% 100%, 10 min per methanol treatment, 37° C.), washed with PBS three times (15 min per wash, 37° C.), and blocked with Blocking Buffer (1% BSA, 0.5% Triton-X in PBS) for 60 minutes (37° C.). Then, the retina was treated with a primary antibody (0.7% FITC-conjugates Anti-lectin Ab in PBS, 4° C., overnight) and washed with PBS three times (15 min per wash, 37° C.). Then, 4 to 6 cuts were radially made in the eye cup, and the flat-mounted retina was covered with Crystal Mount. Then, the image of the flat-mounted retina was taken with a fluorescence microscope (BZ-9000, KEYENCE Corp, Osaka, Japan), and the proportion of the non-perfused area to the entire retina and the proportion of the neovascular area to the entire retina were calculated by the following formulas in NIH image J software. The thus obtained values were converted to relative values by regarding the obtained values of the saline instillation group (control) as 100%, and statistical analysis was performed by Wilcoxon test. Non-perfused area=area of avascular region/area of entire retina Neovascular area=area of neovascular region/area of entire retina

Row | SMILES | effect on retinal neovascularization [1] | effect on VEGF-induced neovascularization [2] | effect on endothelial cells in diabetic model rats (diabetic model rats) | relative value of the neovascular area (saline instillation group = 100%) [3] | relative value of the non-perfused area (saline instillation group = 100%) [3]
1 | C[C@@H](N)[C@H]1CC[C@H](C(=O)Nc2ccncc2)CC1 [Y-27632] | effect of suppressing retinal neovascularization | effect of inhibiting VEGF-induced neovascularization | – | – | –
2 | O=S(=O)(c1cccc2cnccc12)N1CCCNCC1 [fasudil, reference compound] | – | effect of inhibiting VEGF-induced neovascularization | effect of protecting endothelial cells | 102.2% | 107.7%
